Source: ChEMBL document CHEMBL1201862, “PubChem BioAssay data set” (2004)
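Step 1: Grow cells in 96-well plates. Step 2: Expose to compound for 48 hours at 5 concentrations. Step 3: Interpolate endpoints linearly; if unreached, use highest concentration. GI50 marks 50% less growth.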 Activity calls are given as the source filed them. Rule as the data show it: active = GI50 up to about 1.1 µM and inactive = higher.

What was measured:
Experiment in all cases: growth of human tumour cells (NCI), 48 h
[1] = tested on: K562
[2] = tested on: LOX IMVI
[3] = tested on: A549
[4] = tested on: HCC 2998
[5] = tested on: HCT-15
[6] = tested on: IGROV-1
[7] = tested on: OVCAR-5
[8] = tested on: NCI-H23
[9] = tested on: SNB-78
[10] = tested on: CAKI-1
[11] = tested on: NCI-H226
[12] = tested on: SNB-19
[13] = tested on: COLO 205
[14] = tested on: SN12C
[15] = tested on: KM12
[16] = tested on: KM-20L2
[17] = tested on: SK-MEL-5
[18] = tested on: UACC-62
[19] = tested on: 786-0
[20] = tested on: HOP-62
[21] = tested on: CCRF-CEM
[22] = tested on: U-251
[23] = tested on: LXFL 529
[24] = tested on: DLD-1
[25] = tested on: HL-60
[26] = tested on: Malme-3M
[27] = tested on: MOLT-4
[28] = tested on: RXF 631
[29] = tested on: RPMI-8226
[30] = tested on: EKVX
[31] = tested on: SF-539
[32] = tested on: OVCAR-4
[33] = tested on: NCI-H522
[34] = tested on: SW-620
[35] = tested on: M19-MEL
[36] = tested on: SF-295
[37] = tested on: HCT-116
[38] = tested on: XF498
[39] = tested on: SK-MEL-2
[40] = tested on: UO-31
[41] = tested on: OVCAR-3
[42] = tested on: SK-MEL-28
[43] = tested on: ACHN
[44] = tested on: RXF 393
[45] = tested on: NCI-H460
[46] = tested on: SR
[47] = tested on: OVCAR-8
[48] = tested on: UACC-257
[49] = tested on: HT-29
[50] = tested on: M14
[51] = tested on: HOP-18
[52] = tested on: SF-268
[53] = tested on: DMS-114
[54] = tested on: DMS-273
[55] = tested on: HOP-92
[56] = tested on: SK-OV-3
[57] = tested on: TK-10
[58] = tested on: SNB-75
[59] = tested on: A498

Measured: GI50

CCOC(=O)/C(C#N)=C1\N[C@H](C(=O)OCC)CO1
> 100 µM: [5]
inactive: [1] > 100 µM | [2] > 100 µM | [3] > 100 µM | [4] > 100 µM | [6] > 100 µM | [7] > 100 µM | [8] > 100 µM | [9] > 100 µM | [10] > 100 µM | [11] > 100 µM | [12] > 100 µM | [13] > 100 µM | [14] > 100 µM | [15] > 100 µM | [16] > 100 µM | [17] > 100 µM | [18] > 100 µM | [19] > 100 µM | [20] > 100 µM | [21] > 100 µM | [22] > 100 µM | [23] > 100 µM | [24] > 100 µM | [25] > 100 µM | [26] > 100 µM | [27] > 100 µM | [28] > 100 µM | [29] > 100 µM | [30] > 100 µM | [31] > 100 µM | [32] > 100 µM | [33] > 100 µM | [34] > 100 µM | [35] > 100 µM | [36] > 100 µM | [37] > 100 µM | [38] 31.9 µM | [39] 30.4 µM | [40] > 100 µM | [41] > 100 µM | [42] > 100 µM | [43] > 100 µM | [44] > 100 µM | [45] > 100 µM | [46] > 100 µM | [47] > 100 µM | [48] > 100 µM | [49] > 100 µM | [50] > 100 µM | [51] > 100 µM | [52] > 100 µM

CCOC(=O)/C(Br)=C1\OC(=O)c2ccccc2-c2ccccc21
inactive: [1] 21.1 µM | [2] 36.8 µM | [3] 40.3 µM | [4] 49.2 µM | [6] 63.5 µM | [7] > 100 µM | [8] 57.8 µM | [9] 29.6 µM | [10] 54.3 µM | [53] 23.1 µM | [11] 23.4 µM | [13] 20.8 µM | [14] 37.4 µM | [15] 34.7 µM | [54] 41.4 µM | [17] 37.1 µM | [18] 44.4 µM | [19] 52.8 µM | [20] 24.2 µM | [21] 23.3 µM | [22] 38.5 µM | [23] 29.4 µM | [55] 24.3 µM | [24] 91.6 µM | [25] 13.3 µM | [26] 47.2 µM | [27] 25.9 µM | [28] 33.3 µM | [29] 27.9 µM | [30] > 100 µM | [56] 34 µM | [31] 25.1 µM | [33] 23 µM | [57] 60.7 µM | [34] 42.5 µM | [35] 51.1 µM | [36] 36.5 µM | [37] 43.3 µM | [38] 65.8 µM | [39] 64 µM | [40] 38.7 µM | [41] 37.4 µM | [42] 61.4 µM | [43] 52.6 µM | [58] 26.4 µM | [46] 22 µM | [47] 49.8 µM | [48] 58.5 µM | [49] 33.2 µM | [50] 40.4 µM | [51] 91.8 µM | [52] 43.8 µM
48.4 µM: [5]

Nc1ccc(C(=O)N/C(=C\c2ccc3c(c2)OCO3)c2nc3ccccc3s2)cc1
11.3 µM: [5]
inactive: [1] 5.38 µM | [3] 15.5 µM | [4] 14.8 µM | [6] 14.6 µM | [7] 22 µM | [8] > 10 µM | [9] 16.7 µM | [10] 15.9 µM | [12] 15.2 µM | [13] 18.4 µM | [14] 13 µM | [15] 14.8 µM | [16] 14.8 µM | [54] 16.8 µM | [17] 13.7 µM | [18] 14.4 µM | [19] 11.6 µM | [21] 1.89 µM | [22] 13.1 µM | [23] 10.6 µM | [55] 12.3 µM | [24] 13 µM | [26] > 10 µM | [27] 2.79 µM | [28] 5.79 µM | [30] 12.9 µM | [56] 21.3 µM | [31] 17.6 µM | [32] 12.2 µM | [33] 13.8 µM | [57] 19.8 µM | [34] 11.5 µM | [35] 14.9 µM | [36] 16.7 µM | [38] 12.9 µM | [39] 14.8 µM | [40] 15.6 µM | [41] 16.9 µM | [42] 13.2 µM | [43] 14.2 µM | [44] 14.8 µM | [46] 6.01 µM | [47] 14.2 µM | [49] 12.6 µM | [50] 11 µM | [52] 11.9 µM

COc1ccccc1C12OC(=O)C1(C)Oc1ccccc1C2=O (stereo unspecified)
> 100 µM: [5]
inactive: [1] > 100 µM | [2] 26.8 µM | [3] > 100 µM | [4] > 100 µM | [6] > 100 µM | [7] > 100 µM | [8] > 100 µM | [9] > 100 µM | [59] > 100 µM | [53] > 100 µM | [11] > 100 µM | [12] > 100 µM | [13] > 100 µM | [14] > 100 µM | [15] > 100 µM | [16] > 100 µM | [54] 22.5 µM | [17] > 100 µM | [18] > 100 µM | [19] > 100 µM | [20] > 100 µM | [21] > 100 µM | [22] > 100 µM | [23] > 100 µM | [55] 65 µM | [24] > 100 µM | [25] > 100 µM | [26] > 100 µM | [27] > 100 µM | [28] 30.8 µM | [29] > 100 µM | [30] > 100 µM | [56] > 100 µM | [31] > 100 µM | [32] > 100 µM | [57] > 100 µM | [34] > 100 µM | [35] > 100 µM | [36] > 100 µM | [37] > 100 µM | [38] > 100 µM | [39] > 100 µM | [40] > 100 µM | [41] > 100 µM | [42] > 100 µM | [43] > 100 µM | [58] 34.8 µM | [44] > 100 µM | [45] > 100 µM | [47] > 100 µM | [48] > 100 µM | [49] > 100 µM | [50] > 100 µM | [52] > 100 µM

CCOC(=O)N1CCC(=O)C(CNC23CC4CC(CC(C4)C2)C3)C1 (stereo unspecified)
inactive: [1] 13.1 µM | [2] 19 µM | [3] > 100 µM | [7] > 100 µM | [8] 61.4 µM | [9] > 10 µM | [10] > 10 µM | [59] > 100 µM | [11] > 100 µM | [12] > 100 µM | [13] 37.4 µM | [14] > 100 µM | [15] > 100 µM | [16] > 100 µM | [54] 25.2 µM | [17] 80.2 µM | [18] > 100 µM | [19] 15.6 µM | [20] > 100 µM | [21] 16.9 µM | [22] > 100 µM | [23] 18.3 µM | [55] 20.7 µM | [24] 21.1 µM | [25] 22.2 µM | [26] 17.7 µM | [27] 13.9 µM | [28] > 100 µM | [30] > 100 µM | [56] > 100 µM | [31] > 100 µM | [32] 15.1 µM | [33] 16.7 µM | [57] > 100 µM | [34] 19.8 µM | [35] 20.4 µM | [36] > 100 µM | [38] 18.1 µM | [39] > 100 µM | [40] 51.5 µM | [42] 18.2 µM | [43] 17.5 µM | [44] 17.2 µM | [45] > 100 µM | [46] 21.7 µM | [47] 21.2 µM | [48] 23.9 µM | [49] 22.4 µM | [52] > 100 µM
